The numbers were not newly measured in patent US20110039804A1, “Composition of Risedronate and Vitamin D3” (LANDSTEINER SCIENTIFIC, S.A. de C.V., priority 2006, published 2011), which cites them from elsewhere.

Read-outs that look alike come from different tables or passages of the source.

In data set [1] the test system is patients with Paget's disease.
Setting [2] is: Paget's disease, 35 mg daily for two months.

`O=P(O)(O)C(O)(Cc1cccnc1)P(=O)(O)O` [risedronate, 3-pyridil-1-hydroxyethylyden-1,1-bisphosphonic acid]: in data set [1] (setting [2]), the deoxypyridinoline/urinary creatinine ratio entry is on record as “Significantly reduced” and the hydroxyproline/urinary creatinine ratio result was “Significantly reduced”. In addition, the new fractures entry in data set [1] (Paget's disease, 35 mg daily for two months, x-rays before and after 6 months) was “no new fractures”. Moreover, in data set [1] (Paget's disease, daily dose of 35 mg risedronate for two months), the “Patients with normalized serum alkaline phosphatase concentration” value was 77%. Besides, the “dimension of lithic lesions in the axial and appendicular skeleton” value in data set [1] (Paget's disease, x-rays before and after 6 months of treatment) is “Reduced”. The “Patients staying on biochemical remission” value in data set [1] (during the 18 months following the two-month treatment) is given as “Fifty-three”. Further, the “average distribution volume in a state of balance” value (humans) is 6.3 L/kg. For the same compound, the Tmax entry (single oral administration, studied range 2.5 mg to 30 mg single dose) is “approximately 1 hour”.
Consider `CC(O)(P(=O)(O)O)P(=O)(O)O` [etidronate], for which the “Patients with normalized serum alkaline phosphatase concentration” value in data set [1] (Paget's disease, control group, etidronate 400 mg/day for 6 months) is given as 11%.
Take `O=P([O-])(O)C(O)(Cc1cccnc1)P(=O)(O)O.[Na+]` [sodium risedronate]: the systemic metabolism result (in vivo) was “no evidence of systemic metabolism”. The “effect of food on oral bioavailability” value (tablet administered with food) was “reduces”. In addition, the mid oral bioavailability (tablet, oral) is reported as 0.63%.
